# US5561126A, “4-oxa-1-azabicyclo [3,2,0] heptan-7-one derivatives as antitumor agents” (Taiho Pharmaceutical Co., Ltd., priority 1992, dated 1996)
# Experiments:
# KB cells = assay: In Vitro KB Cell Cytotoxicity Assay (crystal violet); format: cell-based; conditions: Homo sapiens, 72 h, read-out: Cytotoxicity TD50 KB
# Protocol: KB cells were cultivated in Eagles minimum essential medium supplemented with 10% calf serum and incubated at 37° C. in a humidified 5% CO2 atmosphere to prepare a cell stock. Cells were counted using a neubauer hemocytometer and seeded in 96 well plates at 100 μl of 3×10^4 cells/ml and cultured for one day. […] Control wells were identical except that test compound was absent. These were cultured for three days. […] Then stained with 100 μl of 0.05% crystal violet for 15 minutes, washed with water and dried. The wells were eluted with 100 μl of 0.05M NaH2 PO4 /ethanol (1:1 v/v) and read at OD540 on a multiscan spectrophotometer. TD50 values were calculated using the following formula.
# Sarcoma 180 = assay: In Vivo Antitumor Activity Against Sarcoma 180; conditions: for Mortality in 12 days: i.p., days 1, 5 and 9
# Protocol: Sarcoma 180, 5×10^6 cells were inoculated by S.C. to male ICR mice (6 weeks old) on day 0. Drugs were administered on days 1, 5 and 9. Mice were killed and tumor weight was measured on day 12 after transplantation. The percentage inhibition of tumor growth was calculated from the mean tumor weight of the treated group compared with that of the control group. Number of mice used in each group was between 6 to 10.
# L1210 cells = assay: cells; format: cell-based; conditions: Mus musculus, L1210, 72 h, read-out: Cytotoxicity TD50 L1210
# Protocol: In vitro L1210 cell cytotoxicity assay was done by the method of microculture tetrazolium assay (Alley et al., Cancer Research, 48, 589-601 (1988)). L1210 cells were cultivated in RPMI 1640 medium supplemented with 10% fetal calf serum and […] of 2-mercaptoethanol at 37° C. in humidified 5% CO2 atmosphere to prepare a cell stock. Cells were counted using neubauer hemocytometer and seed in 96 well plates at 100 μl of 0.5×10^4 cells per ml. The test compounds were diluted and 100 μl of the solution was added in triplicate wells to give the final concentration of 10, 5, 1, 0.5 and 0.1 μg/ml. Control wells were identical except that the test compound was absent. These were cultured for three days. Results were assayed using the microculture tetrazolium assay briefly. 50 μl of MTT formazoan working solution (1:5 v/v in culture medium) was added to each well and cultures were incubated at 37° C. for 4 hrs. Culture plates were centrifuged at low speed for 5 minutes. All but 10-20 μl of culture medium supernatant was removed by slow aspiration and replaced by 50 μl of DMSO. The formazoan was dissolved by shaking on a mechanical shaker and read at OD540 on a multiscan spectrophotometer. TD50 values were calculated using the formula: [formula] to give interpolative values between two dilutions.
# [1] = Mus musculus, Sarcoma-180, ip, 288 h, read-out: % Inhibition of tumor growth
smiles,measurement,setting,value
"O=C([O-])c1ccccc1C(=O)OC[C@H]1CN2C(=O)C[C@@H]2O1.[Na+] (racemic) [compound 25, Sodium (3RS, 5SR)-2-[(4-oxa-1-azabicyclo [3,2,0]heptan-7-one-3-yl)methyloxycarbonyl]benzoate]",CC50,KB cells,1.5 µg/mL
same,Mortality in 12 days,Sarcoma 180; 100 mg/kg/day,2/6
same,inhibition in vivo at 100 mg/kg,Sarcoma 180; [1],44.1%
"CCCC(=O)OC[C@H]1CN2C(=O)C[C@@H]2O1 (racemic) [compound 5, (3RS, 5SR)-3-Butyryloxymethyl-4-oxa-1-azabicyclo [3,2,0]heptan-7-one]",CC50,KB cells,0.3 µg/mL
same,CC50,L1210 cells,0.45 µg/mL
"O=C1C[C@@H]2O[C@@H](CS(=O)(=O)Cc3ccccc3)CN12 (racemic) [compound 43, (3RS, 5SR)-3-Benzylsulfonylmethyl-4-oxa-1-azabicyclo[3,2,0]heptan-7-one]",CC50,KB cells,0.5 µg/mL
same,Mortality in 12 days,Sarcoma 180; 12.5 mg/kg/day,0/6
same,inhibition in vivo at 12.5 mg/kg,Sarcoma 180; [1],19.5%
"O=C(/C=C\C(=O)OC[C@H]1CN2C(=O)C[C@@H]2O1)OC[C@H]1CN2C(=O)C[C@@H]2O1 (relative stereo) [compound 30, Bis [(3RS, 5SR)-(4-oxa-1-azabicyclo[3,2,0]heptan-7-one-3-yl)-methyl]maleate]",CC50,KB cells,0.05 µg/mL
same,Mortality in 12 days,Sarcoma 180; 12.5 mg/kg/day,0/6
same,Mortality in 12 days,Sarcoma 180; 25 mg/kg/day,0/6
same,inhibition in vivo at 12.5 mg/kg,Sarcoma 180; [1],34%
same,inhibition in vivo at 25 mg/kg,Sarcoma 180; [1],76.9%
"O=C1C[C@@H]2O[C@H](CCO)CN12 (racemic) [compound 50, (3RS, 5SR)-3-Hydroxyethyl-4-oxa-1-azabicyclo[3,2,0]heptan-7-one]",CC50,KB cells,0.7 µg/mL
same,Mortality in 12 days,Sarcoma 180; 50 mg/kg/day,0/6
same,inhibition in vivo at 50 mg/kg,Sarcoma 180; [1],65.3%
"O=COC[C@H]1CN2C(=O)C[C@@H]2O1 (racemic) [compound 3, (3RS, 5SR)-3-Formyloxymethyl-4-oxa-1-azabicyclo[3,2,0]heptan-7-one]",CC50,KB cells,0.04 µg/mL
same,Mortality in 12 days,Sarcoma 180; 3.13 mg/kg/day,0/7
same,Mortality in 12 days,Sarcoma 180; 6.25 mg/kg/day,0/7
same,inhibition in vivo at 3.13 mg/kg,Sarcoma 180; [1],27.6%
same,inhibition in vivo at 6.25 mg/kg,Sarcoma 180; [1],55.3%
same,CC50,L1210 cells,0.22 µg/mL
"O=C1C[C@@H]2O[C@@H](CSCc3ccccc3)CN12 (racemic) [compound 41, (3RS,5SR)-3-Benzylthiomethyl-4-oxa-1-azabicyclo[3,2,0]heptan-7-one]",CC50,KB cells,5 µg/mL
same,Mortality in 12 days,Sarcoma 180; 6.25 mg/kg/day,0/6
same,inhibition in vivo at 6.25 mg/kg,Sarcoma 180; [1],17.1%
"CC=CC=CC(=O)OC[C@H]1CN2C(=O)C[C@@H]2O1 (relative stereo) [compound 14, (3RS, 5SR)-3-(2,4-Hexadienoyloxyymethyl)-4-oxa-1-azabicyclo [3,2,0]heptan-7-one]",CC50,KB cells,0.3 µg/mL
same,CC50,L1210 cells,0.65 µg/mL
"CCCCCCCCCC(=O)OC[C@H]1CN2C(=O)C[C@@H]2O1 (racemic) [compound 8, (3RS, 5SR)-3-Decanoyloxymethyl-4-oxa-1-azabicyclo[3,2,0]heptan-7-one]",CC50,KB cells,0.3 µg/mL
same,CC50,L1210 cells,0.37 µg/mL
O=C(OC[C@H]1CN2C(=O)C[C@@H]2O1)c1ccc(O)cc1 (relative stereo) [compound 21],CC50,KB cells,2.2 µg/mL
same,Mortality in 12 days,Sarcoma 180; 50 mg/kg/day,0/6
same,inhibition in vivo at 50 mg/kg,Sarcoma 180; [1],48.3%
"O=C1C[C@@H]2O[C@@H](C[S+]([O-])Cc3ccccc3)CN12 (mixture of isomers) [compound 42, (3RS,5SR)-3-Benzylsulfinylmethyl-4-oxa-1-azabicyclo[3,2,0]heptan-7-one]",CC50,KB cells,0.1 µg/mL
same,Mortality in 12 days,Sarcoma 180; 50 mg/kg/day,0/7
same,inhibition in vivo at 50 mg/kg,Sarcoma 180; [1],64%
same,CC50,L1210 cells,0.3 µg/mL
"O=C(OC[C@H]1CN2C(=O)C[C@@H]2O1)c1ccc(F)cc1 (racemic) [compound 31, (3RS, 5SR)-3-(4-Fluorobenzoyloxymethyl)-4-oxa-1-azabicyclo [3,2,0]heptan-7-one]",CC50,KB cells,0.4 µg/mL
same,Mortality in 12 days,Sarcoma 180; 12.5 mg/kg/day,0/7
same,Mortality in 12 days,Sarcoma 180; 25 mg/kg/day,0/7
same,inhibition in vivo at 12.5 mg/kg,Sarcoma 180; [1],53.2%
same,inhibition in vivo at 25 mg/kg,Sarcoma 180; [1],69.4%
"CC(=O)OC[C@H]1CN2C(=O)C[C@@H]2O1 (racemic) [compound 4, (3RS, 5SR)-3-Acetoxymethyl-4-oxa-1-azabicyclo[3,2,0]heptan-7-one]",CC50,KB cells,0.4 µg/mL
same,Mortality in 12 days,Sarcoma 180; 6.25 mg/kg/day,0/7
same,Mortality in 12 days,Sarcoma 180; 12.5 mg/kg/day,0/7
same,inhibition in vivo at 6.25 mg/kg,Sarcoma 180; [1],64%
same,inhibition in vivo at 12.5 mg/kg,Sarcoma 180; [1],70.7%
same,CC50,L1210 cells,0.4 µg/mL
CCC=CCC=CCC=CCCCCCCCC(=O)OC[C@H]1CN2C(=O)C[C@@H]2O1 (relative stereo) [compound 15],CC50,KB cells,0.41 µg/mL
same,CC50,L1210 cells,0.5 µg/mL
"O=C1C[C@@H]2O[C@@H](C[S+]([O-])c3ccccc3)CN12 (mixture of isomers) [compound 45, (3RS, 5SR)-3-Phenylsulfinylmethyl-4-oxa-1-azabicyclo [3,2,0]heptan-7-one]",CC50,KB cells,0.3 µg/mL
same,CC50,L1210 cells,0.26 µg/mL
"CCCCCC(=O)OC[C@H]1CN2C(=O)C[C@@H]2O1 (racemic) [compound 6, (3RS, 5SR)-3-Hexanoyloxymethyl-4-oxa-1-azabicyclo[3,2,0]heptan-7-one]",CC50,KB cells,0.3 µg/mL
same,Mortality in 12 days,Sarcoma 180; 13 mg/kg/day,0/6
same,Mortality in 12 days,Sarcoma 180; 25 mg/kg/day,0/6
same,Mortality in 12 days,Sarcoma 180; 50 mg/kg/day,0/6
same,inhibition in vivo at 13 mg/kg,Sarcoma 180; [1],36.4%
same,inhibition in vivo at 25 mg/kg,Sarcoma 180; [1],61.4%
same,inhibition in vivo at 50 mg/kg,Sarcoma 180; [1],78%
same,CC50,L1210 cells,0.7 µg/mL
"CCCCCCCC(=O)OC[C@H]1CN2C(=O)C[C@@H]2O1 (racemic) [compound 7, (3RS, 5SR)-3-(n-Octanoyloxymethyl)-4-oxa-1-azabicyclo[3,2,0] heptan-7-one]",CC50,KB cells,0.1 µg/mL
same,CC50,L1210 cells,0.34 µg/mL
"O=C(CCl)OC[C@H]1CN2C(=O)C[C@@H]2O1 (racemic) [compound 13, (3RS, 5SR)-3-Chloroacetoxymethyl-4-oxa-1-azabicyclo[3,2,0]heptan-7-one]",CC50,KB cells,0.5 µg/mL
same,CC50,L1210 cells,0.28 µg/mL
"C#CC(=O)OC[C@H]1CN2C(=O)C[C@@H]2O1 (racemic) [compound 16, (3RS, 5SR)-3-Propynoyloxymethyl-4-oxa-1-azabicyclo[3,2,0]heptan-7-one]",CC50,KB cells,0.07 µg/mL
same,Mortality in 12 days,Sarcoma 180; 1.56 mg/kg/day,0/7
same,Mortality in 12 days,Sarcoma 180; 3.13 mg/kg/day,0/7
same,inhibition in vivo at 1.56 mg/kg,Sarcoma 180; [1],45.9%
same,inhibition in vivo at 3.13 mg/kg,Sarcoma 180; [1],53%
same,CC50,L1210 cells,0.04 µg/mL
COc1ccc(C(=O)OC[C@H]2CN3C(=O)C[C@@H]3O2)cc1 (relative stereo) [compound 20],CC50,KB cells,0.6 µg/mL
same,Mortality in 12 days,Sarcoma 180; 3.13 mg/kg/day,0/7
same,Mortality in 12 days,Sarcoma 180; 6.25 mg/kg/day,0/7
same,Mortality in 12 days,Sarcoma 180; 12.5 mg/kg/day,0/7
same,Mortality in 12 days,Sarcoma 180; 25 mg/kg/day,0/7
same,inhibition in vivo at 3.13 mg/kg,Sarcoma 180; [1],60%
same,inhibition in vivo at 6.25 mg/kg,Sarcoma 180; [1],68.6%
same,inhibition in vivo at 12.5 mg/kg,Sarcoma 180; [1],59.1%
same,inhibition in vivo at 25 mg/kg,Sarcoma 180; [1],74.1%
"N#Cc1ccc(C(=O)OC[C@H]2CN3C(=O)C[C@@H]3O2)cc1 (relative stereo) [compound 33, (3RS, 5SR)-3-(4-Cyanobenzoyloxyymethyl)-4-oxa-1-azabicyclo [3,2,0]heptan-7-one]",CC50,KB cells,0.3 µg/mL
"O=C(CC(O)C(=O)OC[C@H]1CN2C(=O)C[C@@H]2O1)OC[C@H]1CN2C(=O)C[C@@H]2O1 (mixture of isomers) [compound 28, Bis [(3RS, 5SR)-(4-oxa-1-azabicyclo[3,2,0]heptan-7-one-3-yl)-methyl]-2-hydroxysuccinate]",CC50,KB cells,0.3 µg/mL
"Nc1ccc(C(=O)OC[C@H]2CN3C(=O)C[C@@H]3O2)cc1 (racemic) [compound 34, (3RS, 5SR)-3-(4-Aminobenzoyloxymethyl)-4-oxa-1-azabicyclo [3,2,0]heptan-7-one]",CC50,KB cells,0.4 µg/mL
"O=C(O)COc1ccc(C(=O)OC[C@H]2CN3C(=O)C[C@@H]3O2)cc1 (relative stereo) [compound 23, Sodium (3RS, 5SR)-4-(4-oxa-1-azabicyclo [3,2,0]heptan-7-one-3-methyloxycarbonyl)phenoxyacetate]",CC50,KB cells,8.7 µg/mL
same,Mortality in 12 days,Sarcoma 180; 50 mg/kg/day,0/6
same,inhibition in vivo at 50 mg/kg,Sarcoma 180; [1],23.7%
"O=C1C[C@@H]2O[C@@H](CO)CN12 [compound 40, (3R,5S)-3-Hydroxymethyl-4-oxa-1-azabicyclo[3,2,0]heptan-7-one]",CC50,KB cells,0.03 µg/mL
same,Mortality in 12 days,Sarcoma 180; 0.94 mg/kg/day,0/7
same,Mortality in 12 days,Sarcoma 180; 1.88 mg/kg/day,0/7
same,Mortality in 12 days,Sarcoma 180; 3.75 mg/kg/day,0/7
same,Mortality in 12 days,Sarcoma 180; 7.5 mg/kg/day,0/7
same,inhibition in vivo at 0.94 mg/kg,Sarcoma 180; [1],56.1%
same,inhibition in vivo at 1.88 mg/kg,Sarcoma 180; [1],63.7%
same,inhibition in vivo at 3.75 mg/kg,Sarcoma 180; [1],69.1%
same,inhibition in vivo at 7.5 mg/kg,Sarcoma 180; [1],77.4%
same,CC50,L1210 cells,0.027 µg/mL
